Source: patent US20050107394A1, “Novel use of selective pde5 inhibitors” (priority 2001, published 2005)
Several values for one entry are separate records, joined by “and”; a condition that tells them apart may be missing. Identical values can stand only once.

What was measured:
[1] = test system: patients with COPD (chronic obstructive pulmonary disease); assay: Arterial oxygen saturation at rest in COPD patients; type: in vivo, human; design: dose or concentration left out as unconfirmed; settings: 4 COPD patients; sildenafil oral, 6 months
Procedure: FIG. 8: Result of determination of the arterial oxygen saturation on 4 patients with COPD (chronic obstructive pulmonary disease) treated with sildenafil (75 mg/day) (oral) measured at rest over a period of 6 months. The arterial oxygen saturation in the patient improved respectively by 2%, 4%, 5% and 6%, compared with the saturation at the start of the series of measurements (time: 0 months). […]

[2] = test system: patients with COPD (chronic obstructive pulmonary disease); assay: 6-minutes walking test in COPD patients; type: in vivo, human; settings: 6 months
Description: FIG. 7: Result of the 6-minutes walking test measured on 4 patients with COPD (chronic obstructive pulmonary disease). […]

CCCc1nn(C)c2c(=O)[nH]c(-c3cc(S(=O)(=O)N4CCN(C)CC4)ccc3OCC)nc12 [sildenafil, 5-[2-ethoxy-5-(4-methyl-1-piperazinyl-sulphonyl)phenyl]-1-methyl-3-n-propyl-1,6-dihydro-7H-pyrazolo[4,3-d]pyrimidin-7-one]
arterial oxygen saturation at rest, improvement compared with the start (0 months), one value per patient [1]: 2% and 4% and 5% and 6%
6-minutes walking distance, improvement compared with the starting point (0 months), one value per patient ([2]; 4 COPD patients, 75 mg sildenafil oral each day): 41% and 45% and 74% and 150%
functional capacity (6-min walking, arterial O2 saturation), words ([2]; 4 patients, 50 mg/d sildenafil oral): marked improvement
